According to patent US7115566B2, “Compounds and method for the prevention and treatment of diabetic retinopathy” (University of Florida, priority 1997, dated 2006):

What was measured:
cytomegalovirus (CMV) = details: cited from earlier work
[1] = system: retinal neovascularization; assay: intravitreal IGF-1 rabbit model of retinal angiogenesis; type: in vivo, pigmented rabbits; details: for ophthalmoscopy findings: all rabbits
Method: Pigmented rabbits were selected for study after considering the ocular anatomy, animal supply and established use of the species in ophthalmology. Growth factor was injected into the vitreous of pigmented rabbits (n=30) as previously described. Briefly, rabbits were anesthetized with ketamine and xylazine and a 30 g needle was used to withdraw 80 μl of fluid from the anterior eye chamber under an operating microscope. Then a 30 g needle was used to administer 0.1 ml of balanced salt solution containing 600 μg of IGF-1 adjacent to the surface of the retina near the optic nerve head. The rabbits were placed in a supine position for 30–60 minutes to facilitate solution dispersal onto the vascularized medullary ray and disc. Control animals (n=10) received the same dose of heat-inactivated protein (IGF-I held at 100° C. for 30 min). Animals were periodically examined using indirect ophthalmoscopy, fundus photography, and fluorescein angiography from days 2 through 21.
The temporal sequence of the anatomical changes seen in the IGF 1-injected eyes is as follows. […] The fundus of control eyes remained normal in appearance. […] Numerous distended vessels with edematous endothelial cells were found on the surface of the retina along with extensive proliferation of their extracellular matrix. […] Reduplication of the basement membrane, a strong indicator of endothelial cell hyperreactivity, was a consistent finding in all IGF-1 treated eyes. Endothelial cell mitosis was validated using antibody to proliferating cell nuclear antigen. Systemic unpackaged peptide, e.g. lanreotide can be tested for its ability to inhibit IGF-1 induced neovascularization in this rabbit model.

[2] = continuous infusion pump for 4 weeks, cited from earlier work
[3] = after a similar dose (200 μg/kg); cited from earlier work
[4] = system: chorioallantoic membrane of the developing chick embryo; details: chick chorioallantoic membrane assay; cited from earlier work
[5] = compared with octreotide; cited from earlier work
insulin secretion = details: normal physiological conditions; cited from earlier work
[6] = in vivo; cited from earlier work
[7] = pilot study of continuous octreotide infusion to prevent progression of diabetic retinopathy; type: in vivo, human
[8] = system: human retinal endothelial cells (HREC); assay: proliferation and [3H] thymidine incorporation in growth factor stimulated HREC; type: cell-based
[9] = octreotide in patients with severe proliferative diabetic retinopathy (Grant, 1987–1994)
[10] = several months of continuous infusion; 4 patients; cited from earlier work
[11] = six patients, 25 to 100 μg three times a day

Nc1nc(O)c2ncn(COC(CO)CO)c2n1 [ganciclovir]
CMV-encephalitis (cytomegalovirus (CMV); at autopsy): widespread CMV-encephalitis
treatment of CMV retinitis (cytomegalovirus (CMV); verified at autopsy): successful treatment of CMV retinitis

IGF-1: insulin-like growth factor 1, injected intravitreally to induce retinal neovascularization
ophthalmoscopy findings ([1]; 3 days after intravitreal injection of 600 μg): hyperemia with vascular engorgement
microscopic findings on the surface of the retina ([1]; all eyes treated): abnormal vessels were observed on the surface of the retina
ophthalmoscopy findings ([1]; by day 7): Vascular tortuosity, intraretinal hemorrhage, and severe increased hyperemia surrounding the optic disc
ophthalmoscopy findings ([1]; by day 21): Fibrosis developed over the optic disc and medullary ray

lanreotide
disease regressed [2]: 2 patients
disease progression halted ([2]; subjects who completed dosing): 8 of 8
LNT levels in rat eyes [3]: unable to detect significant LNT levels
inhibition of angiogenesis [4]: more potent in inhibiting angiogenesis compared to the natural somatostatin tetradecapeptide
clinical tolerance [5]: better tolerated than octreotide
effect on insulin secretion (insulin secretion): suppress insulin secretion
excreted intact [6]: > 90%
stability of the peptide [6]: stable

octreotide
HgA1c ([7]; four octreotide-treated subjects, within the first 6 months of therapy): normalized
suppression of GH and IGF-1 levels into the hypopituitary range ([7]; four patients): not achieved in any patient
clinical or angiographic improvement ([7]; four patients, continuous infusion, doses up to 5000 μg/day): no patient showed clear clinical or angiographic improvement
progression to high risk characteristics requiring laser therapy ([7]; four patients, in at least one eye): Laser therapy was initiated in all four patients
visual acuity ([7]; patients receiving octreotide): statistically significant improvement
[3H] thymidine incorporation ([8]; IGF-1 and b-FGF stimulated HREC): dose-dependent inhibition
proliferation of HREC ([8]; IGF-1 stimulated cultures): significantly decreased
inhibitory effect on proliferation of HREC ([8]; b-FGF stimulated cultures): 40–45%
cell proliferation ([8]; cells grown in control medium): minimal effect
HgA1c ([9]; all seven study patients): reductions
sense of well-being ([9]; all seven study patients): improved
visual acuity ([9]; all seven study patients): improved
posterior pole neovascularization ([9]; seventh patient): not affected
side effects leading to stopping the drug ([9]; seventh patient): gastrointestinal side effects
iris neovascularization ([9]; seventh patient with severe bilateral neovascular glaucoma): regressed completely
disease progression during treatment period [9, 11]: None of the six patients showed disease progression
regression of NVD [9, 11]: four
retinal function [10]: improved
